How the values were obtained:
Assay type in all cases: physicochemical
[1] = Interfacial tension (IFT) by spinning drop interfacial tensiometer; conditions: 0.10 wt % surfactant, 95° C., spinning 1 hour; for IFT, BRINE 1: Brine 1: NaCl 3.0%, CaCl2-2H2O 1.0%, MgCl2-6H2O 1.0%; for IFT, BRINE 2: Brine 2: NaCl 1.0%; for IFT, BRINE 3: Brine 3: NaCl 5.0%; for IFT, BRINE 4: Brine 4: NaCl 10%; for IFT, BRINE 5: Brine 5: NaCl 20%
Protocol: (§1) In all cases the surfactant formulation consisted of 30% by weight surfactant, 25% by weight ethylene glycol monobutyl ether (co-surfactant/solvent), and 45% by weight water. Also in all cases except where noted the surfactant formulation was added to the injection brine at a concentration of 0.10 weight percent. These examples use surfactants containing only ethylene oxide in the alcohol ether carboxylate although products containing propylene oxide and ethylene oxide give good results in certain applications.
(§2) Table II is the brine compositions that were used for the IFT testing to show the effect of total dissolved solids and divalent ion concentration on the IFT obtained using various surfactants.
All IFTs were obtained using a University of Texas Model 500 spinning drop interfacial tensiometer after spinning at 95° C. for 1 hour.

[2] = Brine solubilities of surfactant concentrates; conditions: 5.0% by weight surfactant concentrate, 30° C.; for Brine solubility, BRINE 1: Brine 1: NaCl 3.0%, CaCl2-2H2O 1.0%, MgCl2-6H2O 1.0%; for Brine solubility, BRINE 2: Brine 2: NaCl 1.0%; for Brine solubility, BRINE 3: Brine 3: NaCl 5.0%; for Brine solubility, BRINE 4: Brine 4: NaCl 10%; for Brine solubility, BRINE 5: Brine 5: NaCl 20%
Protocol: as §1, §2
Table III compares the solubilities obtained with 5.0% by weight of various surfactant concentrates in the 5 brines at 30° C.

Static adsorption test = assay: Static adsorption test
Description: Table VII compares the adsorption of the composition of this invention surfactant B with a 1:1 molar mixture of surfactant D and surfactant E to show the effectiveness of having both the sulfonate and ether carboxylate on one molecule. 0.2 wt % surfactant D and 0.2 wt % surfactant E alone were also included to correct for the amount of each of these surfactants adsorbed. All tests were done using 0.20 wt % total surfactant in Brine 2. The static adsorption was run by mixing 50.0 grams of surfactant solution with 10.0 grams of 200 mesh beach sand on a wrist action shaker for 16 hours and then determining the amount of surfactant remaining compared to the original amount added.

[3] = 0.20 wt % total surfactant in Brine 2, 16 hours

Substance | IFT, BRINE 1 [1] | IFT, BRINE 2 [1] | IFT, BRINE 3 [1] | IFT, BRINE 4 [1] | IFT, BRINE 5 [1] | Brine solubility, BRINE 1 [2] | Brine solubility, BRINE 2 [2] | Brine solubility, BRINE 3 [2] | Brine solubility, BRINE 4 [2] | Brine solubility, BRINE 5 [2] | % adsorbed (Static adsorption test; [3]) | amount adsorbed in mg surfactant/gram sand (Static adsorption test; [3]) | Amount remaining (Static adsorption test; of 0.100 g original wt, 0.20 wt % total surfactant in Brine 2, 50.0 g solution with 10.0 g sand, 16 hours) | Adsorbed (Static adsorption test; of 0.100 g original wt, 0.20 wt % total surfactant in Brine 2, 16 hours)
Sodium salt of carboxylated oleyl alcohol with 2 moles of EO. [Surfactant C] | 0.769 mN/m | 0.070 mN/m | 0.090 mN/m | 0.122 mN/m | 0.256 mN/m | dis- | soluble | soluble | soluble | dis- | – | – | – | –
Sodium salt of carboxylated oleyl alcohol with 9 moles of EO. [Surfactant D] | 0.066 mN/m | 0.031 mN/m | 0.022 mN/m | 0.020 mN/m | 0.020 mN/m | soluble | soluble | soluble | soluble | soluble | 78% | 7.8 mg/g | 0.022 | 0.078
